In ChEMBL document CHEMBL1147193, “New 5-substituted thiazolo[3,2-b][1,2,4]triazol-6-ones: synthesis and anticancer evaluation” (2007):

Columns and labels:
Type in all cases: functional
PC-3 = experiment: Growth inhibition of human PC3 cells after 48 hrs by SRB protein assay; conditions: PC-3, 48 h; for TGI: read-out: Log TGI (converted)
KM12 = experiment: Growth inhibition of human KM12 cells after 48 hrs by SRB protein assay; conditions: KM12, 48 h; for TGI: read-out: Log TGI (converted)
A498 = experiment: Growth inhibition of human A498 cells after 48 hrs by SRB protein assay; conditions: A498, 48 h; for TGI: read-out: Log TGI (converted)
SNB-19 = experiment: Growth inhibition of human SNB19 cells after 48 hrs by SRB protein assay; conditions: SNB-19, 48 h; for TGI: read-out: Log TGI (converted)
A549 = experiment: Growth inhibition of human A549/ATCC cells after 48 hrs by SRB protein assay; conditions: A549, 48 h; for TGI: read-out: Log TGI (converted)
SF-539 = experiment: Growth inhibition of human SF539 cells after 48 hrs by SRB protein assay; conditions: SF-539, 48 h; for TGI: read-out: Log TGI (converted)
SW-620 = experiment: Growth inhibition of human SW620 cells after 48 hrs by SRB protein assay; conditions: SW-620, 48 h; for TGI: read-out: Log TGI (converted)
SF-268 = experiment: Growth inhibition of human SF268 cells after 48 hrs by SRB protein assay; conditions: SF-268, 48 h; for TGI: read-out: Log TGI (converted)
IGROV-1 = experiment: Growth inhibition of human IGROV1 cells after 48 hrs by SRB protein assay; conditions: IGROV-1, 48 h; for TGI: read-out: Log TGI (converted)
NCI-H23 = experiment: Growth inhibition of human NCI-H23 cells after 48 hrs by SRB protein assay; conditions: NCI-H23, 48 h
SF-295 = experiment: Growth inhibition of human SF295 cells after 48 hrs by SRB protein assay; conditions: SF-295, 48 h; for TGI: read-out: Log TGI (converted)
SN12C = experiment: Growth inhibition of human SN12C cells after 48 hrs by SRB protein assay; conditions: for TGI: read-out: Log TGI (converted)
NCI/ADR-RES = experiment: Growth inhibition of human NCI/ADR-RES cells after 48 hrs by SRB protein assay; conditions: for TGI: read-out: Log TGI (converted)
OVCAR-4 = experiment: Growth inhibition of human OVCAR4 cells after 48 hrs by SRB protein assay; conditions: OVCAR-4, 48 h; for TGI: read-out: Log TGI (converted)
LOX IMVI = experiment: Growth inhibition of human LOX IMVI cells after 48 hrs by SRB protein assay; conditions: for TGI: read-out: Log TGI (converted)
DU-145 = experiment: Growth inhibition of human DU145 cells after 48 hrs by SRB protein assay; conditions: DU-145, 48 h; for TGI: read-out: Log TGI (converted)
COLO 205 = experiment: Growth inhibition of human COLO205 cells after 48 hrs by SRB protein assay; conditions: COLO 205, 48 h; for TGI: read-out: Log TGI (converted)
SK-MEL-2 = experiment: Growth inhibition of human SK-MEL-2 cells after 48 hrs by SRB protein assay; conditions: SK-MEL-2, 48 h; for TGI: read-out: Log TGI (converted)
786-0 = experiment: Growth inhibition of human 786-0 cells after 48 hrs by SRB protein assay; conditions: 786-0, 48 h; for TGI: read-out: Log TGI (converted)
SNB-75 = experiment: Growth inhibition of human SNB75 cells after 48 hrs by SRB protein assay; conditions: SNB-75, 48 h
HL-60 = experiment: Growth inhibition of human HL60 cells after 48 hrs by SRB protein assay; conditions: HL-60, 48 h; for TGI: read-out: Log TGI (converted)
SR = experiment: Growth inhibition of human SR cells after 48 hrs by SRB protein assay

## O=C(CC1Sc2ncnn2C1=O)Nc1ccc(Cl)cc1 (stereo unspecified)
PC-3
  GI50: 55 µM
  TGI: > 100 µM
KM12
  GI50: > 100 µM
  TGI: > 100 µM
A498
  GI50: > 100 µM
  TGI: > 100 µM
SNB-19
  GI50: > 100 µM
  TGI: > 100 µM
A549
  GI50: > 100 µM
  TGI: > 100 µM
SF-539
  GI50: 31.6 µM
  TGI: 74.1 µM
SW-620
  GI50: 32.4 µM
  TGI: 79.4 µM
SF-268
  GI50: > 100 µM
  TGI: > 100 µM
IGROV-1
  GI50: > 100 µM
  TGI: > 100 µM
NCI-H23
  GI50: 23.4 µM
NCI-H23; read-out: Log TGI (converted)
  TGI: 70.8 µM
SF-295
  GI50: > 100 µM
  TGI: > 100 µM
SN12C
  GI50: 22.9 µM
  TGI: 53.7 µM
NCI/ADR-RES
  GI50: 38 µM
  TGI: > 100 µM
OVCAR-4
  GI50: 31.6 µM
  TGI: 83.2 µM
LOX IMVI
  GI50: 20.4 µM
  TGI: 45.7 µM
DU-145
  GI50: > 100 µM
  TGI: > 100 µM
COLO 205
  GI50: 19.5 µM
  TGI: 47.9 µM
SK-MEL-2
  GI50: > 100 µM
  TGI: > 100 µM
786-0
  GI50: 20.4 µM
  TGI: 43.7 µM

## O=c1/c(=C/c2ccc(F)cc2)sc2ncnn12
PC-3
  GI50: 53.7 µM
  TGI: > 100 µM
KM12
  GI50: 35.5 µM
  TGI: > 100 µM
A498
  GI50: 61.7 µM
  TGI: > 100 µM
SNB-19
  GI50: 63.1 µM
  TGI: > 100 µM
SNB-75
  GI50: 58.9 µM
SNB-75; read-out: Log TGI (converted)
  TGI: > 100 µM
A549
  GI50: 87.1 µM
  TGI: > 100 µM
HL-60
  GI50: 6.46 µM
  TGI: > 100 µM
SF-539
  GI50: 30.2 µM
  TGI: 93.3 µM
SW-620
  GI50: 66.1 µM
  TGI: > 100 µM
SF-268
  GI50: 33.9 µM
  TGI: > 100 µM
IGROV-1
  GI50: 57.5 µM
  TGI: > 100 µM
SF-295
  GI50: 52.5 µM
  TGI: > 100 µM
SR
  GI50: 15.5 µM
SR; read-out: Log TGI (converted)
  TGI: > 100 µM
SN12C
  GI50: 40.7 µM
  TGI: > 100 µM
NCI/ADR-RES
  GI50: 38 µM
  TGI: > 100 µM
OVCAR-4
  GI50: 34.7 µM
  TGI: > 100 µM
LOX IMVI
  GI50: 37.2 µM
  TGI: > 100 µM
DU-145
  GI50: 39.8 µM
  TGI: > 100 µM
COLO 205
  GI50: 61.7 µM
  TGI: > 100 µM
SK-MEL-2
  GI50: > 100 µM
  TGI: 51.3 µM
786-0
  GI50: 51.3 µM
  TGI: > 100 µM

## CCOC(=O)c1ccc(NC(=O)CC2Sc3ncnn3C2=O)cc1 (stereo unspecified)
PC-3
  GI50: 18.2 µM
  TGI: 40.7 µM
KM12
  GI50: > 100 µM
  TGI: > 100 µM
SNB-19
  GI50: > 100 µM
  TGI: > 100 µM
A549
  GI50: > 100 µM
  TGI: > 100 µM
HL-60
  GI50: 46.8 µM
  TGI: > 100 µM
SW-620
  GI50: 38.9 µM
  TGI: > 100 µM
SF-268
  GI50: > 100 µM
  TGI: > 100 µM
SF-295
  GI50: > 100 µM
  TGI: > 100 µM
SN12C
  GI50: 26.3 µM
  TGI: 87.1 µM
NCI/ADR-RES
  GI50: 18.2 µM
  TGI: 36.3 µM
LOX IMVI
  GI50: 18.2 µM
  TGI: 35.5 µM
COLO 205
  GI50: 21.4 µM
  TGI: 40.7 µM
786-0
  GI50: 15.5 µM
  TGI: 28.8 µM
